Source: patent publication US11660319B2, “Compositions comprising bacterial strains” (priority 2017, dated 2023)

Tests used:
[1] = tested on: differentiated SHSY-5Y neuroblastoma cells; assay: ROS generated by TBHP (DCFDA fluorescence); type: cell-based, human; settings: 100 uM TBHP, 10% bacteria supernatant, 2 h
Procedure: SHSY-5Y cells were plated in black flat bottom 96 well plate at density of 5000 cells/well and placed in the CO2 incubator. After 24 h, media were replaced with differentiation medium (growth medium containing 1% FBS) and 10 μM retinoic acid. Differentiation medium was replaced every other day. On Day 10 the differentiation medium was removed and cells were washed with pre-warmed PBS and stained with 10 uM DCFDA molecular probe for 20 mins in growth medium containing 1% FBS. Then cells were washed with pre-warmed PBS again and treated with 100 uM TBHP in the presence or absence of 10% bacteria supernatant for 2 h. Fluorescence intensity was measured using TECAN plate reader at Ex/Em 485/530 nm.

[2] = tested on: HDAC; assay: HDAC inhibition on whole HT-29 cells and HT-29 cell lysate; type: cell-based
Procedure: Bacterial culture and cell-free supernatant collection Pure cultures of bacteria were grown anaerobically in YCFA broth until they reached their stationary growth phase. Cultures were centrifuged at 5,000×g for 5 minutes and the cell-free supernatant (CFS) was filtered using a 0.2 μM filter (Millipore, UK). 1 mL aliquots of the CFS were stored at −80° C. until use. Sodium butyrate, hexanoic and valeric acid were obtained from Sigma Aldrich (UK) and suspensions were prepared in YCFA broth.
To investigate which metabolites were responsible for the strain-induced HDAC inhibition, different concentrations of hexanoic acid, valeric acid and sodium butyrate were measured for their HDAC inhibition on whole HT-29 cells and on HT-29 cell lysate.

[3] = tested on: MPTP lesioned mice; assay: Dopamine, DOPAC and HVA in striatum of MPTP lesioned mice (HPLC); type: in vivo, mouse; settings: 2 x 10^8 bacteria p.o. 18 days, MPTP 4 × 20 mg/kg i.p. day 0, day 4 sampling
Procedure: The aim of this study was to evaluate the effects of MRX0029 anaerobic bacteria using MPTP lesioned mice. 48 male mice were allocated to 4 different treatment groups (groups A, B, E and I, with n=12 animals in each group). The treatment groups are shown in Table 1 below and the project time course is outlined below.
Groups A, B, E and I were treated daily for 18 days via oral gavage with either bacteria (MRx0029-group E), or vehicle (PBS). Oral treatment started 14 days before MPTP lesion. Group I animals received a daily vehicle (PBS) p.o. (per oral) treatment and were injected i.p. (intraperitoneal) with the reference drug 30 min before and 90 min after first MPTP on day 0. The application volume for p.o. and vehicle treatment was 200 μl per mouse. Bacteria strain of group E was from glycerol stocks (gly). For oral treatment, gavages for applications were stored in vial containing 70% Ethanol and were flushed before and after each use with distilled water. Every treatment group had its own gavage and ethanol vial and distilled water vial. The tubes and gavages were not changed between the groups. […]
Concentrations of DA, DOPAC and HVA in the striatal samples were determined by column liquid chromatography with electrochemical detection [110; 111]. […] The chromatograms were recorded and integrated by use of a computerized data acquisition system (DataApex, Prague, Czech Republic). […]

[4] = tested on: BALBc mice; assay: Monoamine analysis in brainstem of mice fed with bacteria (HPLC); type: in vivo, mouse; settings: 1×10^9 CFU oral gavage 6 days
Procedure: Animals were allowed to habituate to their holding room for one week after arrival into the animal unit. They receive oral gavage (200 μL dose) of live biotherapeutics at a dose of 1×10^9 CFU for 6 consecutive days between 15:00 and 17:00. On day 7, the animals are decapitated, and tissues are harvested for experimentation.
Neurotransmitter concentration was analysed by HPLC on samples from the brainstem. Briefly, brainstem tissue was sonicated in 500 μl of chilled mobile phase spiked with 4 ng/40 μl of N-Methyl 5-HT (Sigma Chemical Co., UK) as internal standard. The mobile phase contained 0.1 M citric acid, 5.6 mM octane-1-sulphonic acid (Sigma), 0.1 M sodium dihydrogen phosphate, 0.01 mM EDTA (Alkem/Reagecon, Cork) and 9% (v/v) methanol (Alkem/Reagecon) and was adjusted to pH 2.8 using 4 N sodium hydroxide (Alkem/Reagecon). Homogenates were then centrifuged for 15 min at 22,000×g at 4° C. and 40 μl of the supernatant injected onto the HPLC system which consisted of a SCL 10-Avp system controller, LECD 6A electrochemical detector (Shimadzu), a LC-10AS pump, a CTO-10A oven, a SIL-10A autoinjector (with sample cooler maintained at 40 C) and an online Gastorr Degasser (ISS, UK). A reverse-phase column (Kinetex 2.6 u C18 100×4.6 mm, Phenomenex) maintained at 30° C. was employed in the separation (Flow rate 0.9 ml/min). The glassy carbon working electrode combined with an Ag/AgCl reference electrode (Shimdazu) operated a +0.8 V and the chromatograms generated were analyzed using Class-VP 5 software (Shimadzu). The neurotransmitters were identified by their characteristic retention times as determined by standard injections, which run at regular intervals during the sample analysis. The ratios of peak heights of analyte versus internal standard were measured and compared with standard injection. Results were expressed as ng of neurotransmitter per g fresh weight of tissue.

[5] = tested on: HT29-mtx epithelial, mucin-producing cell monolayers; assay: mRNA expression of tight junction proteins in HT29-mtx (qRT-PCR); type: cell-based; settings: 2 h incubation
Procedure: Total RNA was extracted using the RNeasy mini kit (Qiagen, Manchester, JUK) according to the manufacturer's instructions, and the RNA concentration determined by absorbance at 260/280 nm using a spectrophotometer (nano-Drop ND-1000; Thermo Scientific, Wilmington, Del.). For mRNA expression analysis, cDNA was prepared from total RNA using the High-Capacity cDNA reverse transcription kit (Applied Biosystems, UK) according to the manufacturer's instructions. The reverse transcription reactions were performed in a Thermo cycler (Biometra, Germany) at 25° C. for 10 min, 37° C. for 120 min, and 85° C. for 5 min, hold on at 4° C. Resulting cDNA was amplified in duplicates by the SYBR-Green PCR assay, and products were detected on QuantStudio 6 flex real-time PCR machine (Applied Biosystems, UK) using a standardised profile (initial denaturation of 95° C. for 10 minutes, followed by 40 cycles of 15 seconds of denaturation at 95° C. and 60 seconds of annealing/extension at 60/65° C., depending on the primers. A dissociation stage was added after the 40 cycles to generate a melting curve. Analysis was performed using the Applied Biosystems QuantStudio Real-Time PCR Software v1.2. The primer sequences for Actin, Villin, Occludin TJP1 and TJP2 are provided in the sequence listing.

## Megasphaera massiliensis [MRx0029]
[1]
  ROS production: inhibit
[2]; HT-29 cell lysate
  HDAC inhibition, HT29 cell lysate: strong HDAC inhibition
[2]; whole HT-29 cells
  HDAC inhibition, HT29 whole cell: strong HDAC inhibition
[3]
  DOPAC in striatum: recover production
  Dopamine in striatum: recover production
[4]
  5-HIAA in brain: slight increase
  serotonin in brain: slight increase
[4]; p=0.0507
  noradrenaline levels in brain: increased
[5]
  Occludin mRNA expression: enhanced
  Tight Junction Protein 1 (TJP1) mRNA expression: enhanced
  Tight Junction Protein 2 (TJP2) mRNA expression: enhanced
  Vlillin mRNA expression: enhanced
